These results are taken from patent US20050222200A1, “AMIDE DERIVATIVES AS ION CHANNEL LIGANDS AND PHARMACEUTICAL COMPOSITIONS AND METHODS OF USING THE SAME” (Renovis, Inc., priority 2003, published 2005).

T1 sequence (Q8NER1 whole entry, species assumed): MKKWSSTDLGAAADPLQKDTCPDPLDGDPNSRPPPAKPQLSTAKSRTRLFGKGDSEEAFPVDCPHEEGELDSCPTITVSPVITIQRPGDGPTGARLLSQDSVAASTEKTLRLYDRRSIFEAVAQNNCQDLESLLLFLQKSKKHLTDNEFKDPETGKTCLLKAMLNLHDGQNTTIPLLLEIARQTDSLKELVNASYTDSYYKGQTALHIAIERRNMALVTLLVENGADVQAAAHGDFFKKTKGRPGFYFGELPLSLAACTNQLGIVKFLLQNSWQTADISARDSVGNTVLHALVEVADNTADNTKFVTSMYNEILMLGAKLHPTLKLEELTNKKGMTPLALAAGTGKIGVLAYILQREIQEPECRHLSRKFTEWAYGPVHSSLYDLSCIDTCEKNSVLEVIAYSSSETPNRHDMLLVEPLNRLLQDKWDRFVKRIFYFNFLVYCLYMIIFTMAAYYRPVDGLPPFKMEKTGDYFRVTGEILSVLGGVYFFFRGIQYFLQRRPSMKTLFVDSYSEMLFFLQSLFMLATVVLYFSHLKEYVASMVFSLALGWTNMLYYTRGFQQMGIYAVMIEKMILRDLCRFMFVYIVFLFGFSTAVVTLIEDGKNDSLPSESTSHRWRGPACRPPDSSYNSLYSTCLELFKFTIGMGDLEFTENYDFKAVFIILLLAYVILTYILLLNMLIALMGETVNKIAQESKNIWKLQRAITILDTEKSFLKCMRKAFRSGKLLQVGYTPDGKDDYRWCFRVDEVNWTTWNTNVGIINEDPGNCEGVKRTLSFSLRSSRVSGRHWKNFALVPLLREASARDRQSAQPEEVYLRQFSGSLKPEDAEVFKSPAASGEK

This assay concerns the target T1, VR1 (Homo sapiens, UniProt Q8NER1).
T1 construct: expressed in transfected cells; host or cells: 293 cells ("293 neurons" [sic])
Briefly: High throughput calcium imaging assay of VR1 antagonists (Fura2, Flex Station, 96 well). Note: test concentration or dose not given here. The class given is cell-based. The following applies: Table 1 activity class.
Consider `CC(C)(C)/C=C/c1ccc(C(=O)NCCc2ccccc2Cl)cc1` [Compound 11], for which the “inhibition of calcium ion influx induced by capsaicin stimulation” value (shortened to “inhibition of calcium ion influx induced”) was “++++ (compound exhibited 75% or greater inhibition of calcium ion influx induced by capsaicin stimulation)”. On to `CC(C)(C)/C=C/c1ccc(C(=O)NC2CCC(C(C)(C)C)CC2)cc1` (centres unmarked) [Compound 12], for which the “inhibition of calcium ion influx induced” value is reported as “+ (compound exhibited 0-25% inhibition of calcium ion influx induced by capsaicin stimulation)”. `CC(C)(C)/C=C/c1ccc(C(=O)NCc2ccccc2)cc1` [Compound 13]: the “inhibition of calcium ion influx induced” value was “+ (compound exhibited 0-25% inhibition of calcium ion influx induced by capsaicin stimulation)”. On to `CCCNC(=O)c1ccc(/C=C/C(C)(C)C)cc1` [Compound 14], for which the “inhibition of calcium ion influx induced” value is recorded as “+ (compound exhibited 0-25% inhibition of calcium ion influx induced by capsaicin stimulation)”.

In the case of `COc1ccc(NC(=O)c2ccc(/C=C/C(C)(C)C)cc2)cc1` [Compound 15], the “inhibition of calcium ion influx induced” value is “+ (compound exhibited 0-25% inhibition of calcium ion influx induced by capsaicin stimulation)”. Regarding `CC(C)(C)/C=C/c1ccc(C(=O)NCC2CCCO2)cc1` (centres unmarked) [Compound 16], the “inhibition of calcium ion influx induced” value is reported as “+ (compound exhibited 0-25% inhibition of calcium ion influx induced by capsaicin stimulation)”.

In the case of `CC(C)(C)/C=C/c1ccc(C(=O)NCc2ccc3c(c2)OCO3)cc1` [Compound 17], the “inhibition of calcium ion influx induced” value is recorded as “+ (compound exhibited 0-25% inhibition of calcium ion influx induced by capsaicin stimulation)”. In the case of `CC(C)(C)/C=C/c1ccc(C(=O)NCCc2ccc(S(C)(=O)=O)cc2)cc1` [Compound 20], the “inhibition of calcium ion influx induced” value is reported as “+ (compound exhibited 0-25% inhibition of calcium ion influx induced by capsaicin stimulation)”. As to `COc1ccc(CCNC(=O)c2ccc(/C=C/C(C)(C)C)cc2)cc1OC` [Compound 24], the “inhibition of calcium ion influx induced” value is “+ (compound exhibited 0-25% inhibition of calcium ion influx induced by capsaicin stimulation)”. With `CC(C)(C)/C=C/c1ccc(C(=O)NC(C)(C)c2ccccc2)cc1` [Compound 26], the “inhibition of calcium ion influx induced” value is “+ (compound exhibited 0-25% inhibition of calcium ion influx induced by capsaicin stimulation)”. For `CC(C)(C)/C=C/c1ccc(C(=O)NCc2cccs2)cc1` [Compound 29], the “inhibition of calcium ion influx induced” value is “+ (compound exhibited 0-25% inhibition of calcium ion influx induced by capsaicin stimulation)”.

As to `CC(C)(C)/C=C/c1ccc(C(=O)Nc2ccccc2C#N)cc1` [Compound 30], the “inhibition of calcium ion influx induced” value was “++ (compound exhibited 25-50% inhibition of calcium ion influx induced by capsaicin stimulation)”. `COc1ccccc1NC(=O)c1ccc(/C=C/C(C)(C)C)cc1` [Compound 31]: the “inhibition of calcium ion influx induced” value was “+ (compound exhibited 0-25% inhibition of calcium ion influx induced by capsaicin stimulation)”. In the case of `CC(C)(C)/C=C/c1ccc(C(=O)Nc2ccccc2Cl)cc1` [Compound 33], the “inhibition of calcium ion influx induced” value is on record as “+ (compound exhibited 0-25% inhibition of calcium ion influx induced by capsaicin stimulation)”. For the molecule `COc1ccc(CNC(=O)c2ccc(/C=C/C(C)(C)C)cc2)cc1OC` [Compound 35], the “inhibition of calcium ion influx induced” value is on record as “+ (compound exhibited 0-25% inhibition of calcium ion influx induced by capsaicin stimulation)”. Turning to `COc1ccc(NC(=O)c2ccc(/C=C/C(C)(C)C)cc2)cc1Cl` [Compound 37], the “inhibition of calcium ion influx induced” value is on record as “+ (compound exhibited 0-25% inhibition of calcium ion influx induced by capsaicin stimulation)”. The result for `CC(C)(C)/C=C/c1ccc(C(=O)Nc2cccc(C#N)c2)cc1` [Compound 38] reads “+ (compound exhibited 0-25% inhibition of calcium ion influx induced by capsaicin stimulation)”; that for `CC(C)(C)/C=C/c1ccc(C(=O)Nc2ccccc2CCO)cc1` [Compound 39], “++++ (compound exhibited 75% or greater inhibition of calcium ion influx induced by capsaicin stimulation)”; that for `CC(C)(C)/C=C/c1ccc(C(=O)Nc2ccc(C(C)(C)C)cc2)cc1` [Compound 40], “+++ (compound exhibited 50-75% inhibition of calcium ion influx induced by capsaicin stimulation)”. Consider `CC(C)c1ccc(NC(=O)c2ccc(/C=C/C(C)(C)C)cc2)cc1` [Compound 41], for which the “inhibition of calcium ion influx induced” value is given as “++ (compound exhibited 25-50% inhibition of calcium ion influx induced by capsaicin stimulation)”. Under `CCCCc1ccc(NC(=O)c2ccc(/C=C/C(C)(C)C)cc2)cc1` [Compound 42] stands “+ (compound exhibited 0-25% inhibition of calcium ion influx induced by capsaicin stimulation)”.

For `CC(C)(C)/C=C/c1ccc(C(=O)Nc2ccc(C3CCCCC3)cc2)cc1` [Compound 43], the “inhibition of calcium ion influx induced” value is “+ (compound exhibited 0-25% inhibition of calcium ion influx induced by capsaicin stimulation)”. For the molecule `COc1cc(NC(=O)c2ccc(/C=C/C(C)(C)C)cc2)cc(C(F)(F)F)c1` [Compound 44], the “inhibition of calcium ion influx induced” value is reported as “++++ (compound exhibited 75% or greater inhibition of calcium ion influx induced by capsaicin stimulation)”. Take `Cc1ccc2[nH]c(=O)c3ccc(/C=C/C(C)(C)C)cc3c2c1` [Compound 45]: the “inhibition of calcium ion influx induced” value was “++++ (compound exhibited 75% or greater inhibition of calcium ion influx induced by capsaicin stimulation)”. Under `CC(C)(C)/C=C/c1ccc(C(=O)Nc2ccc3c(c2)OCO3)cc1` [Compound 47] stands “++++ (compound exhibited 75% or greater inhibition of calcium ion influx induced by capsaicin stimulation)”; under `Cc1cc(C)nc(NC(=O)c2ccc(/C=C/C(C)(C)C)cc2)c1` [Compound 48], “++ (compound exhibited 25-50% inhibition of calcium ion influx induced by capsaicin stimulation)”; under `CC(C)(C)/C=C/c1ccc(C(=O)NCc2ccncc2)cc1` [Compound 49], “++++ (compound exhibited 75% or greater inhibition of calcium ion influx induced by capsaicin stimulation)”. The result for `CC(C)(C)/C=C/c1ccc(C(=O)Nc2ccncc2)cc1` [Compound 52] reads “++++ (compound exhibited 75% or greater inhibition of calcium ion influx induced by capsaicin stimulation)”; that for `CC(C)(C)/C=C/c1ccc(C(=O)Nc2cccnc2)cc1` [Compound 53], “++++ (compound exhibited 75% or greater inhibition of calcium ion influx induced by capsaicin stimulation)”; that for `CC(C)(C)/C=C/c1ccc(C(=O)Nc2cc[nH]n2)cc1` [Compound 54], “+ (compound exhibited 0-25% inhibition of calcium ion influx induced by capsaicin stimulation)”.

`CC(C)(C)/C=C/c1ccc(C(=O)Nc2nccs2)cc1` [Compound 55]: the “inhibition of calcium ion influx induced” value is recorded as “+ (compound exhibited 0-25% inhibition of calcium ion influx induced by capsaicin stimulation)”.

Take `CC(C)(C)/C=C/c1ccc(C(=O)NC2CCC(Cc3ccccc3)CC2)cc1` (centres unmarked) [Compound 56]: the “inhibition of calcium ion influx induced” value was “+ (compound exhibited 0-25% inhibition of calcium ion influx induced by capsaicin stimulation)”.
